Data as given in US4507485A, “3,4-Disubstituted-1,2,5-oxadiazoles having histamine H2 -receptor antagonist activity” (Bristol-Myers Company, priority 1984, dated 1985).

How the values were obtained:
[1] = tested on: histamine H2-receptor; conditions: cited from earlier work; for histamine H2-antagonist potency/effectiveness: compared with burimamide or metiamide
[2] = tested on: gastric secretion; conditions: cited from earlier work
[3] = in vivo; cited from earlier work
[4] = in vivo; cited from earlier work; remark: listed apart in the source
[5] = tested on: peptic ulcer disease; conditions: clinical evaluation; cited from earlier work
[6] = tested on: gastric secretion (gastric fistula rat); histamine H2-receptor; experiment: Gastric antisecretory activity in the gastric fistula rat; assay type: in vivo, rat (male Long Evans); conditions: sc; for Potency Ratio: relative to cimetidine = 1.0
Experimental: Male Long Evans rats weighing about 240-260 grams at the time of cannula implantation are used. […] The fistula components are designed and the operative procedure is carried out exactly as described in the above reference. Post operatively the animals are individually housed in solid bottom cages with sawdust and are allowed food and water ad libitum throughout the entire recovery period. Animals are not used for test purposes for at least 15 days after the operative procedure. The animals are fasted but allowed water ad libitum for 20 hours before the testing procedure is to begin. […] The catheter is then screwed into the cannula in place of the plugging screw and the rat is placed in a clear plastic rectangular cage measuring 40 cm long, 15 cm wide and 13 cm high. The bottom of the cage has a slit approximately 1.5 cm wide and 25 cm long running down the center to accommodate the catheter which hangs through it. […] Chem. Path. […] Gastric secretions collected during the first hour after washing the stomach are discarded as they may be contaminated. For oral evaluation, the catheter is then removed from the cannula and replaced with the plugging screw. […] After this time the plugging screw is removed and replaced with a catheter to which a small plastic vial has been attached to collect the gastric secretions. […] The secretions in the second sample are compared to those of the control sample in order to determine the effects of the test drug. […] Results are expressed as percent inhibition relative to control readings. Dose response curves are constructed and ED50 values are calculated by regression analyses. At least three rats are used at each dosage level and a minimum of three dosage levels are utilized for determination of a dose response curve.

[7] = tested on: gastric secretion (Heidenhain pouch dog); experiment: Gastric antisecretory activity in the Heidenhain pouch dog; assay type: in vivo, dog (female); conditions: iv; for ED50: Canis lupus familiaris, histamine infusion
Experimental: Prior to surgery, hematology and blood chemistry profiles are obtained and an assessment made as to the general health of selected female dogs. Dogs are vaccinated with Tissue Vax 5 (DHLP--Pitman-Moore) and housed in general animal quarters for four weeks' observation so incipient diseases may become apparent. Dogs are fasted with water ad libitum 24 hours prior to surgery.
Anesthesia is induced with Sodium Pentothal (Abbott) 25-30 mg/kg iv. Subsequent anesthesia is maintained with methoxyflurane (Pitman-Moore). A mid-line linea alba incision from xiphoid to umbilicus provides good exposure and ease of closure. The stomach is pulled up into the operative field, the greater curvature stretched out at multiple points and clamps placed along the selected line of incision. The pouch is made from the corpus of the stomach so that true parietal cell juice is obtained. About 30% of the corpus volume is resected. […]
Ninety minutes' infusion are allowed for the dogs to reach a steady state of acid output. […] Each sample is measured to the nearest 0.5 ml and titratable acidity is determined by titrating a 1 ml sample to pH 7.0 with 0.2N NaOH, using an Autoburet and an electrometric pH meter (Radiometer). Titratable acid output is calculated in microequivalents by multiplying the volume in milliliters by the acid concentration in milliequivalents per liter.
Results are expressed as percent inhibition relative to control readings and the response is the average for five days at that dose level.

SMILES	toxicity (agranulocytosis) [4]	histamine H2-antagonist potency/effectiveness [1]	ED50 [6]	Potency Ratio [6]	ED50 [7]	further results
CNC(=S)NCCCCc1cnc[nH]1 [Burimamide]						clinical effectiveness as histamine H2-receptor antagonist ([1]; clinical): first clinically effective; inhibition of gastric secretion ([2]; animals, including man): inhibits gastric secretion in animals, including man; oral absorption [3]: poor
CN=C(NC#N)NCCSCc1[nH]cnc1C [Cimetidine]	without producing agranulocytosis	as effective an histamine H2 -antagonist as metiamide				therapeutic effect in peptic ulcer disease [5]: effective therapeutic agent in the treatment of peptic ulcer disease
Nc1nonc1NCCCOc1cccc(CN2CCCCC2)c1 [Example 1, 3-Amino-4-[3-(3-piperidinomethylphenoxy)propylamino]-1,2,5-oxadiazole]			0.18 µmol/kg	19.3	0.03 mg/kg	Potency Ratio ([7]; relative to ranitidine = 1.0): 1.8
CN(C)Cc1ccc(CSCCNc2nonc2N)o1 [Example 2, 3-Amino-4-{2-[(5-dimethylaminomethyl-2-furyl)methylthio]ethylamino}-1,2,5-oxadiazole]			5 µmol/kg	0.70		
CNC(=S)NCCSCc1[nH]cnc1C [Metiamide]	toxicity (agranulocytosis)	more potent than burimamide				oral activity in man ([2]; oral, man): orally active in man
CNC(=C[N+](=O)[O-])NCCSCc1ccc(CN(C)C)o1 [Ranitidine]					0.054 mg/kg	
